Source: patent US20250263441A1 (Metanovas Biotech Inc., priority 2024, published 2025)
Values joined by “and” are separate entries in the source; they are usually repeats but may differ in a detail not shown here. Equal values may be shown once.

Columns and labels:
Format in all cases: cell-based
[1] = system: Helicobacter pylori; experiment: Inhibitory effect of AMP-33 on Helicobacter pylori; details: 5 and 10 μg/mL, 48 hours
Protocol: (1) Helicobacter pylori was cultured to the logarithmic phase. Then, 4.5 mL of the bacterial solution was centrifuged at 5,000 g for 6 minutes, and the organisms were resuspended in Wilkins-Chalgren medium. The concentration of the bacterial solution was adjusted to approximately 2× 10^5 CFU/mL using pre-configured McClure's turbidimetric tubes.
(2) Helicobacter pylori was cultured in a microtiter plate (96 wells), and 50 μL of different AMP33 peptides were added (at concentrations of 5 and 10 μg/mL). Next, 100 μL of diluted Helicobacter pylori bacterial fluid was added, followed by 50 μL of medium until the final concentration reached 1×10^5 CFU/mL.
(3) A blank control was provided with equal amounts of medium solution and bacterial solution as in the experimental group, with at least 3 replicates for each treatment group.
(4) The 96-well plate was placed in a bacterial incubator at 37° C. and incubated at 150 rpm for 48 hours.

[2] = system: Candida albicans; experiment: Minimum inhibitory concentration on Candida albicans (liquid culture); details: 37° C., 24 to 48 hours
Protocol: Primary screening of liquid culture: the peptides in Examples 1 to 2 were dissolved in pure water to a concentration of 100 μg/mL. Using a micropipette, 10 μL of the peptides were added to a new 96-well plate in order from left to right, starting from the second compartment. Positive and negative controls were established for use. The 96-well plates were arranged vertically, and the peptide concentrations of the control groups were the same as those of the antimicrobial peptide. The control groups consisted of: pure water and bacteria, antimicrobial peptide FK13 and bacteria, and antimicrobial peptide HPA3NT3 and bacteria. An aseptic medium was used. The amino acid sequence of FK13 is […] (SEQ ID NO: 5), and the amino acid sequence of HPA3NT3 is […] (SEQ ID NO: 6).
If a 96-deep-well plate was used to culture bacteria, an additional 100 μL of sterile medium was added to all wells.
Candida albicans was inoculated in LB medium with normal oxygen concentration (21%) for 48 hours. […] clones were picked and incubated in LB medium at 37° C. with normal oxygen concentration (21%) for 48 hours. The bacterial concentration was measured and diluted to 107 CFU/mL with culture medium for use.
The prepared fresh bacterial suspension was diluted to 105 CFU/mL and added to the 96-well plate with 90 μL of the bacterial suspension per well, and incubated at 37° C. with normal oxygen concentration for 24 to 48 hours. The absorbance at 630 nm was measured with a microplate reader, and the degree of turbidity was observed by the naked eye.
(iv) Repetition of Operations: The Operations in (iii) were Repeated Twice, and the Decision to Perform a Third Repetition was Based on the Reproducibility of the Experiment.

[3] = system: Staphylococcus aureus (ATCC: 25913); experiment: Inhibitory effect of AMP-33 on Staphylococcus aureus (viability, OD 630 nm); details: for Viability of Staphylococcus aureus: 24 hours, repeated experiments
Protocol: (1) Staphylococcus aureus and Escherichia coli were inoculated into LB liquid medium and cultured overnight under aerobic conditions at 37° C. and […] on a shaker.
(2) 200 μL of LB liquid culture medium and a predetermined concentration of peptide AMP-33 were added to a 96-deep-well plate. Then, 10 μL of the Staphylococcus aureus/Escherichia coli solution was inoculated (mixed well before inoculation).
(§1) (3) After incubating at […] for 24 hours on a shaking table at 37° C., the turbidity of the bacterial solution was observed. A volume of 100 μL of the solution was taken, and the OD at 630 nm was measured using an enzyme-linked immunosorbent assay (ELISA) reader (after multiple blows and mixing).
(§2) [formula] • OD Measurement: OD value of the test peptide. • ODneg: OD value with no bacterial inoculation, containing only […] medium. • ODpos: OD value with bacterial inoculation and without inhibitors.

[4] = system: Mouse macrophage RAW264.7 cells; experiment: RT-qPCR of inflammation markers in LPS-stimulated RAW264.7 cells; details: LPS 10 ng/ml, 24 hours; repeated experiments
Protocol: (§3) (1) Mouse macrophage RAW264.7 cells were cultured in DMEM supplemented with 10% fetal bovine serum (FBS) and 1% penicillin and streptomycin (P/S) at 37° C. in a 5% CO2 incubator.
(§4) (2) 5×10^4 mouse-derived RAW264.7 macrophages were placed in 12-well cell culture plates and cultured for 24 hours. Then, 20 μL of PBS (negative control), Dexamethasone (positive control), and the test peptide were added to the wells for incubation for 2 hours. Afterward, 10 ng/ml of lipopolysaccharide (LPS) was mixed with RAW264.7 cells and incubated for 24 hours.
(4) The cells were collected, and total RNA was isolated and extracted, reverse transcribed, and subjected to RT-qPCR to detect inflammation markers, including TNF-α, IL-1β, IL-6/10, CCL2, IFN-γ, iNOS, and GAPDH.
3. After treating RAW264.7 cells with AMP-33, RT-qPCR was used to detect the levels of IL-6 and IL-1ß mRNA.

[5] = system: Mouse macrophage RAW264.7 cells; experiment: NO concentration after treatment of LPS-stimulated RAW264.7 cells; details: LPS 10 ng/ml, 24 hours, replicate experiments
Protocol: as §3, §4
(3) The supernatant was collected, and NO and IL-6/IL-1ß expression levels were measured using a commercial kit.

[6] = system: Candida albicans (ATCC: 14053); experiment: Inhibitory effect of AMP-33 on Candida albicans (viability, OD 630 nm); details: 8 μg/mL, 28 hours; repeated experiments
Protocol: (1) Candida albicans was inoculated into YM liquid medium and cultured overnight under aerobic conditions at 28° C. and […] on a shaker.
(2) 200 μL of YM liquid culture medium and a predetermined concentration of peptide AMP-33 were added to a 96-deep-well plate. Then, 10 μL of the Candida albicans solution was inoculated (mixed well before inoculation).
as §1, with “28” for “24”, “28°” for “37°”
as §2

Example 2: LSKWLKKLGKLLAG (designated as AMP33)
inhibitory activity against H. pylori [1]: approximately 100%
Minimum inhibitory concentration on Candida albicans [2]: 25 µg/mL
Viability of Staphylococcus aureus ([3]; 1 μg/mL): 117.78 and 116.41 and 116.45
Viability of Staphylococcus aureus ([3]; 2 μg/mL): 121.60 and 104.84 and 102.77
Viability of Staphylococcus aureus ([3]; 4 μg/mL): 88.75 and 109.74 and 132.77
Viability of Staphylococcus aureus ([3]; 8 μg/mL): 98.53 and 99.19 and 97.03
inhibition of Staphylococcus aureus ([3]; 50 ppm): over 99%
CCL-2 mRNA level [4]: 0.51 and 0.52 and 0.58
COX-2 mRNA level [4]: 0.71 and 0.58 and 1.16
IL-1β mRNA level [4]: 0.40 and 0.45 and 0.77
IL-6 mRNA level [4]: 0.96 and 0.49 and 0.95
IL-10 mRNA level [4]: 1.80 and 2.50 and 1.32
NO concentration ([5]; AMP-33 2 μg/mL): 12.70 µM and 13.54 µM and 13.37 µM
NO concentration ([5]; AMP-33 4 μg/mL): 12.35 µM and 12.14 µM and 11.10 µM
NO concentration ([5]; AMP-33 8 μg/mL): 10.26 µM and 10.75 µM and 11.10 µM
NO concentration ([5]; AMP-33 25 μg/mL): 2.82 µM and 2.89 µM and 3.83 µM
NO concentration ([5]; AMP-33 50 μg/mL): 1.27 µM and 1.33 µM and 1.60 µM
NO concentration ([5]; AMP-33 100 μg/mL): 1.60 µM and 1.13 µM and 1.54 µM
Viability of Candida albicans [6]: 53.84 and 70.73 and 66.17
